# From US9562085B2, “Antimicrobial peptide” (priority 2013, dated 2017)
# Non-standard residues stand in square brackets, D forms with d. Residues, ends and D or L forms follow the SMILES beside them.
# Tested on: S. aureus JAR
# Assay type: cell-based
# Details: JAR, 2 h
# Description: S. aureus JAR is described in Campoccia et al. (Int. J. Artif. Organs, 2008 September; 31(9):841-7).
# For the in vitro killing assay with P10 variants, S. aureus JAR ([…] CFU/ml) were incubated for 2 hours at 37° C. with various concentrations of the peptides in PBS or in PBS/human plasma (1/1, v/v). […] The LC99.9 is the average value of two independent experiments.
Structure (SMILES),LC99.9 (μM) (50% plasma) [µM],LC99.9 (μM) (PBS) [µM]
"CC[C@H](C)[C@H](NC(=O)[C@H](CCCCN)NC(=O)[C@H](CCCCN)NC(=O)[C@H](Cc1ccc(O)cc1)NC(=O)[C@H](CCC(=O)O)NC(=O)[C@H](CCCNC(=N)N)NC(=O)[C@H](C)NC(=O)[C@H](CC(C)C)NC(C)=O)C(=O)N[C@H](C(=O)N[C@H](CCC(=O)O)C(=O)N[C@@H](CCCCN)C(=O)N[C@@H](CC(C)C)C(=O)N[C@@H](CCCCN)C(=O)N[C@@H](CCCNC(=N)N)C(=O)N[C@@H](Cc1c[nH]c2ccccc12)C(=O)N[C@@H](CC(C)C)C(=O)N[C@@H](CCCNC(=N)N)C(=O)N[C@@H](CCC(N)=O)C(=O)N[C@H](C(=O)N[C@@H](CC(C)C)C(=O)N[C@@H](CCCNC(=N)N)C(=O)N[C@H](C(=O)N[C@@H](CC(C)C)C(=O)N[C@@H](CCCNC(=N)N)C(N)=O)[C@@H](C)O)C(C)C)C(C)C [Peptide 1301-10, JLAREYKKIVeKLKRWLRQVLRTLRB] (Ac-LAREYKKIV[dE]KLKRWLRQVLRTLR-NH2)",38.4,0.6
"CC[C@H](C)[C@H](NC(=O)[C@H](CCCCN)NC(=O)[C@H](CCCCN)NC(=O)[C@H](Cc1ccc(O)cc1)NC(=O)[C@H](CCC(=O)O)NC(=O)[C@H](CCCNC(=N)N)NC(=O)[C@H](C)NC(=O)[C@H](CC(C)C)NC(C)=O)C(=O)N[C@H](C(=O)N[C@@H](CCC(=O)O)C(=O)N[C@H](CCCCN)C(=O)N[C@@H](CC(C)C)C(=O)N[C@@H](CCCCN)C(=O)N[C@@H](CCCNC(=N)N)C(=O)N[C@@H](Cc1c[nH]c2ccccc12)C(=O)N[C@@H](CC(C)C)C(=O)N[C@@H](CCCNC(=N)N)C(=O)N[C@@H](CCC(N)=O)C(=O)N[C@H](C(=O)N[C@@H](CC(C)C)C(=O)N[C@@H](CCCNC(=N)N)C(=O)N[C@H](C(=O)N[C@@H](CC(C)C)C(=O)N[C@@H](CCCNC(=N)N)C(N)=O)[C@@H](C)O)C(C)C)C(C)C [Peptide 1301-11, JLAREYKKIVEkLKRWLRQVLRTLRB] (Ac-LAREYKKIVE[dK]LKRWLRQVLRTLR-NH2)",19.2,0.4
"CC[C@H](C)[C@H](NC(=O)[C@H](CCCCN)NC(=O)[C@H](CCCCN)NC(=O)[C@H](Cc1ccc(O)cc1)NC(=O)[C@H](CCC(=O)O)NC(=O)[C@H](CCCNC(=N)N)NC(=O)[C@H](C)NC(=O)[C@H](CC(C)C)NC(C)=O)C(=O)N[C@H](C(=O)N[C@@H](CCC(=O)O)C(=O)N[C@@H](CCCCN)C(=O)N[C@H](CC(C)C)C(=O)N[C@@H](CCCCN)C(=O)N[C@@H](CCCNC(=N)N)C(=O)N[C@@H](Cc1c[nH]c2ccccc12)C(=O)N[C@@H](CC(C)C)C(=O)N[C@@H](CCCNC(=N)N)C(=O)N[C@@H](CCC(N)=O)C(=O)N[C@H](C(=O)N[C@@H](CC(C)C)C(=O)N[C@@H](CCCNC(=N)N)C(=O)N[C@H](C(=O)N[C@@H](CC(C)C)C(=O)N[C@@H](CCCNC(=N)N)C(N)=O)[C@@H](C)O)C(C)C)C(C)C [Peptide 1301-12, JLAREYKKIVEKlKRWLRQVLRTLRB] (Ac-LAREYKKIVEK[dL]KRWLRQVLRTLR-NH2)",32.0,0.6
"CC[C@H](C)[C@H](NC(=O)[C@H](CCCCN)NC(=O)[C@H](CCCCN)NC(=O)[C@H](Cc1ccc(O)cc1)NC(=O)[C@H](CCC(=O)O)NC(=O)[C@H](CCCNC(=N)N)NC(=O)[C@H](C)NC(=O)[C@H](CC(C)C)NC(C)=O)C(=O)N[C@H](C(=O)N[C@@H](CCC(=O)O)C(=O)N[C@@H](CCCCN)C(=O)N[C@@H](CC(C)C)C(=O)N[C@H](CCCCN)C(=O)N[C@@H](CCCNC(=N)N)C(=O)N[C@@H](Cc1c[nH]c2ccccc12)C(=O)N[C@@H](CC(C)C)C(=O)N[C@@H](CCCNC(=N)N)C(=O)N[C@@H](CCC(N)=O)C(=O)N[C@H](C(=O)N[C@@H](CC(C)C)C(=O)N[C@@H](CCCNC(=N)N)C(=O)N[C@H](C(=O)N[C@@H](CC(C)C)C(=O)N[C@@H](CCCNC(=N)N)C(N)=O)[C@@H](C)O)C(C)C)C(C)C [Peptide 1301-13, JLAREYKKIVEKLkRWLRQVLRTLRB] (Ac-LAREYKKIVEKL[dK]RWLRQVLRTLR-NH2)",38.4,0.6
"CC[C@H](C)[C@H](NC(=O)[C@H](CCCCN)NC(=O)[C@H](CCCCN)NC(=O)[C@H](Cc1ccc(O)cc1)NC(=O)[C@H](CCC(=O)O)NC(=O)[C@H](CCCNC(=N)N)NC(=O)[C@H](C)NC(=O)[C@H](CC(C)C)NC(C)=O)C(=O)N[C@H](C(=O)N[C@@H](CCC(=O)O)C(=O)N[C@@H](CCCCN)C(=O)N[C@@H](CC(C)C)C(=O)N[C@@H](CCCCN)C(=O)N[C@H](CCCNC(=N)N)C(=O)N[C@@H](Cc1c[nH]c2ccccc12)C(=O)N[C@@H](CC(C)C)C(=O)N[C@@H](CCCNC(=N)N)C(=O)N[C@@H](CCC(N)=O)C(=O)N[C@H](C(=O)N[C@@H](CC(C)C)C(=O)N[C@@H](CCCNC(=N)N)C(=O)N[C@H](C(=O)N[C@@H](CC(C)C)C(=O)N[C@@H](CCCNC(=N)N)C(N)=O)[C@@H](C)O)C(C)C)C(C)C [Peptide 1301-14, JLAREYKKIVEKLKrWLRQVLRTLRB] (Ac-LAREYKKIVEKLK[dR]WLRQVLRTLR-NH2)",38.4,0.6
"CC[C@H](C)[C@H](NC(=O)[C@H](CCCCN)NC(=O)[C@H](CCCCN)NC(=O)[C@H](Cc1ccc(O)cc1)NC(=O)[C@H](CCC(=O)O)NC(=O)[C@H](CCCNC(=N)N)NC(=O)[C@H](C)NC(=O)[C@H](CC(C)C)NC(C)=O)C(=O)N[C@H](C(=O)N[C@@H](CCC(=O)O)C(=O)N[C@@H](CCCCN)C(=O)N[C@@H](CC(C)C)C(=O)N[C@@H](CCCCN)C(=O)N[C@@H](CCCNC(=N)N)C(=O)N[C@H](Cc1c[nH]c2ccccc12)C(=O)N[C@@H](CC(C)C)C(=O)N[C@@H](CCCNC(=N)N)C(=O)N[C@@H](CCC(N)=O)C(=O)N[C@H](C(=O)N[C@@H](CC(C)C)C(=O)N[C@@H](CCCNC(=N)N)C(=O)N[C@H](C(=O)N[C@@H](CC(C)C)C(=O)N[C@@H](CCCNC(=N)N)C(N)=O)[C@@H](C)O)C(C)C)C(C)C [Peptide 1301-15, JLAREYKKIVEKLKRwLRQVLRTLRB] (Ac-LAREYKKIVEKLKR[dW]LRQVLRTLR-NH2)",38.4,0.4
"CC[C@H](C)[C@H](NC(=O)[C@H](CCCCN)NC(=O)[C@H](CCCCN)NC(=O)[C@H](Cc1ccc(O)cc1)NC(=O)[C@H](CCC(=O)O)NC(=O)[C@H](CCCNC(=N)N)NC(=O)[C@H](C)NC(=O)[C@H](CC(C)C)NC(C)=O)C(=O)N[C@H](C(=O)N[C@@H](CCC(=O)O)C(=O)N[C@@H](CCCCN)C(=O)N[C@@H](CC(C)C)C(=O)N[C@@H](CCCCN)C(=O)N[C@@H](CCCNC(=N)N)C(=O)N[C@@H](Cc1c[nH]c2ccccc12)C(=O)N[C@H](CC(C)C)C(=O)N[C@@H](CCCNC(=N)N)C(=O)N[C@@H](CCC(N)=O)C(=O)N[C@H](C(=O)N[C@@H](CC(C)C)C(=O)N[C@@H](CCCNC(=N)N)C(=O)N[C@H](C(=O)N[C@@H](CC(C)C)C(=O)N[C@@H](CCCNC(=N)N)C(N)=O)[C@@H](C)O)C(C)C)C(C)C [Peptide 1301-16, JLAREYKKIVEKLKRWlRQVLRTLRB] (Ac-LAREYKKIVEKLKRW[dL]RQVLRTLR-NH2)",38.4,0.6
"CC[C@H](C)[C@H](NC(=O)[C@H](CCCCN)NC(=O)[C@H](CCCCN)NC(=O)[C@H](Cc1ccc(O)cc1)NC(=O)[C@H](CCC(=O)O)NC(=O)[C@H](CCCNC(=N)N)NC(=O)[C@H](C)NC(=O)[C@H](CC(C)C)NC(C)=O)C(=O)N[C@H](C(=O)N[C@@H](CCC(=O)O)C(=O)N[C@@H](CCCCN)C(=O)N[C@@H](CC(C)C)C(=O)N[C@@H](CCCCN)C(=O)N[C@@H](CCCNC(=N)N)C(=O)N[C@@H](Cc1c[nH]c2ccccc12)C(=O)N[C@@H](CC(C)C)C(=O)N[C@H](CCCNC(=N)N)C(=O)N[C@@H](CCC(N)=O)C(=O)N[C@H](C(=O)N[C@@H](CC(C)C)C(=O)N[C@@H](CCCNC(=N)N)C(=O)N[C@H](C(=O)N[C@@H](CC(C)C)C(=O)N[C@@H](CCCNC(=N)N)C(N)=O)[C@@H](C)O)C(C)C)C(C)C [Peptide 1301-17, JLAREYKKIVEKLKRWLrQVLRTLRB] (Ac-LAREYKKIVEKLKRWL[dR]QVLRTLR-NH2)",38.4,0.6
"CC[C@H](C)[C@H](NC(=O)[C@H](CCCCN)NC(=O)[C@H](CCCCN)NC(=O)[C@H](Cc1ccc(O)cc1)NC(=O)[C@H](CCC(=O)O)NC(=O)[C@H](CCCNC(=N)N)NC(=O)[C@H](C)NC(=O)[C@H](CC(C)C)NC(C)=O)C(=O)N[C@H](C(=O)N[C@@H](CCC(=O)O)C(=O)N[C@@H](CCCCN)C(=O)N[C@@H](CC(C)C)C(=O)N[C@@H](CCCCN)C(=O)N[C@@H](CCCNC(=N)N)C(=O)N[C@@H](Cc1c[nH]c2ccccc12)C(=O)N[C@@H](CC(C)C)C(=O)N[C@@H](CCCNC(=N)N)C(=O)N[C@H](CCC(N)=O)C(=O)N[C@H](C(=O)N[C@@H](CC(C)C)C(=O)N[C@@H](CCCNC(=N)N)C(=O)N[C@H](C(=O)N[C@@H](CC(C)C)C(=O)N[C@@H](CCCNC(=N)N)C(N)=O)[C@@H](C)O)C(C)C)C(C)C [Peptide 1301-18, JLAREYKKIVEKLKRWLRqVLRTLRB] (Ac-LAREYKKIVEKLKRWLR[dQ]VLRTLR-NH2)",38.4,0.6
"CC[C@H](C)[C@H](NC(=O)[C@H](CCCCN)NC(=O)[C@H](CCCCN)NC(=O)[C@H](Cc1ccc(O)cc1)NC(=O)[C@H](CCC(=O)O)NC(=O)[C@H](CCCNC(=N)N)NC(=O)[C@H](C)NC(=O)[C@H](CC(C)C)NC(C)=O)C(=O)N[C@H](C(=O)N[C@@H](CCC(=O)O)C(=O)N[C@@H](CCCCN)C(=O)N[C@@H](CC(C)C)C(=O)N[C@@H](CCCCN)C(=O)N[C@@H](CCCNC(=N)N)C(=O)N[C@@H](Cc1c[nH]c2ccccc12)C(=O)N[C@@H](CC(C)C)C(=O)N[C@@H](CCCNC(=N)N)C(=O)N[C@@H](CCC(N)=O)C(=O)N[C@@H](C(=O)N[C@@H](CC(C)C)C(=O)N[C@@H](CCCNC(=N)N)C(=O)N[C@H](C(=O)N[C@@H](CC(C)C)C(=O)N[C@@H](CCCNC(=N)N)C(N)=O)[C@@H](C)O)C(C)C)C(C)C [Peptide 1301-19, JLAREYKKIVEKLKRWLRQvLRTLRB] (Ac-LAREYKKIVEKLKRWLRQ[dV]LRTLR-NH2)",32.0,0.6
